Results as given in patent US20260262643A1, “HERBICIDAL BENZOXAZINES” (FMC CORPORATION, priority 2022, published 2026).
Read-outs that look alike come from different tables or passages of the source.

Legend:
blackgrass = test: Test A preemergence; format: in vivo, Alopecurus myosuroides; details: Alopecurus myosuroides, pre-emergence, 240 h, 0 to 100 scale, read-out: Plant response rating, Blackgrass; for pest or weed control at 125 g/ha: 125 g ai/ha; for pest or weed control at 500 g/ha: 500 g ai/ha
Procedure, shortened: (§1)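 Greenhouse pot test, 10 days. Compound (non-phytotoxic solvent, surfactant) sprayed on soil at seeding or on seedlings at one- to two-leaf stage. Visual injury rated 0–100 against untreated plants.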

goosegrass [1] = test: Test A preemergence; format: in vivo, Eleusine indica; details: Eleusine indica, pre-emergence, 240 h, visual injury after 10 days, 0 to 100 scale, 0 is no effect, 100 is complete control, read-out: Plant response rating, Goosegrass; for pest or weed control at 125 g/ha: 125 g ai/ha; for pest or weed control at 500 g/ha: 500 g ai/ha
Procedure, shortened: as §1

ragweed = test: Test A preemergence; format: in vivo, Ambrosia artemisiifolia; details: Ambrosia artemisiifolia, pre-emergence, 240 h, 0 to 100 scale, read-out: Plant response rating, Ragweed; for pest or weed control at 125 g/ha: 125 g ai/ha; for pest or weed control at 500 g/ha: 500 g ai/ha
Procedure, shortened: as §1

soybean = test: Test A preemergence; format: in vivo, Glycine max; details: Glycine max, pre-emergence, 240 h, 0 to 100 scale, read-out: Plant response rating, Soybean; for plant injury at 125 g/ha: 125 g ai/ha; for plant injury at 500 g/ha: 500 g ai/ha
Procedure, shortened: as §1

corn = test: Test A postemergence; format: in vivo, Zea mays; details: Zea mays, post-emergence, 240 h, postemergence, 10 days, 0 to 100 scale (0 no effect, 100 complete control); for plant injury at 125 g/ha: 125 g ai/ha, read-out: Corn plant response rating; for Corn plant response rating (crop injury, 0 = no effect, 100 = complete kill) at 500 g/ha: 500 g ai/ha, visual injury
Procedure, shortened: as §1

foxtail, giant = test: Test A postemergence; format: in vivo, Setaria faberi; details: Setaria faberi, post-emergence, 240 h, postemergence, 10 days, 0 to 100 scale (0 no effect, 100 complete control); for pest or weed control at 125 g/ha: 125 g ai/ha, read-out: Foxtail, Giant plant response rating; for pest or weed control at 500 g/ha: 500 g ai/ha, visual injury, read-out: Plant response rating, Foxtail, Giant
Procedure, shortened: as §1

goosegrass [2] = test: Test A postemergence; format: in vivo, Eleusine indica; details: Eleusine indica, post-emergence, 240 h, postemergence, 10 days, 0 to 100 scale (0 no effect, 100 complete control); for pest or weed control at 125 g/ha: 125 g ai/ha, read-out: Goosegrass plant response rating; for pest or weed control at 500 g/ha: 500 g ai/ha, visual injury, read-out: Plant response rating, Goosegrass
Procedure, shortened: as §1

kochia = test: Test A postemergence; format: in vivo, Bassia scoparia; details: Bassia scoparia, post-emergence, 240 h, postemergence, 10 days, 0 to 100 scale (0 no effect, 100 complete control); for pest or weed control at 125 g/ha: 125 g ai/ha, read-out: Kochia plant response rating; for pest or weed control at 500 g/ha: 500 g ai/ha, visual injury, read-out: Plant response rating, Kochia
Procedure, shortened: as §1

pigweed, palmer = test: Test A postemergence; format: in vivo, Amaranthus palmeri; details: Amaranthus palmeri, post-emergence, 240 h, postemergence, 10 days, 0 to 100 scale (0 no effect, 100 complete control); for pest or weed control at 125 g/ha: 125 g ai/ha, read-out: Pigweed, Palmer plant response rating; for pest or weed control at 500 g/ha: 500 g ai/ha, visual injury, read-out: Plant response rating, Pigweed, Palmer
Procedure, shortened: as §1

ryegrass, Italian = test: Test A postemergence; format: in vivo, Lolium multiflorum; details: Lolium multiflorum, post-emergence, 240 h, postemergence, 10 days, 0 to 100 scale (0 no effect, 100 complete control); for pest or weed control at 125 g/ha: 125 g ai/ha, read-out: Ryegrass, Italian plant response rating; for pest or weed control at 500 g/ha: 500 g ai/ha, visual injury, read-out: Plant response rating, Ryegrass, Italian
Procedure, shortened: as §1

galium = test: Test A postemergence; format: in vivo, Galium aparine; details: Galium, post-emergence, 240 h, postemergence, 10 days, 0 to 100 scale (0 no effect, 100 complete control); for pest or weed control at 125 g/ha: 125 g ai/ha, read-out: Galium plant response rating; for pest or weed control at 500 g/ha: 500 g ai/ha, visual injury, read-out: Plant response rating, Galium
Procedure, shortened: as §1

barnyardgrass [3] = test: Test B flooded paddy test; format: in vivo, Echinochloa crus-galli; details: Echinochloa crus-galli, 312 h, 250 g ai/ha, Flood, 13 days, 0 to 100 scale (0 no effect, 100 complete control); read-out: Plant response rating, Barnyardgrass
Procedure, shortened: (§2)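 Percent weed or crop control, judged by eye on a 0–100 scale 13 days post-treatment, reflects compound added to a 3 cm flood maintained over 2-leaf plants in the greenhouse. Missing entries are marked with a dash.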

rice = test: Test B flooded paddy test; format: in vivo, Oryza sativa; details: Oryza sativa, 312 h; 250 g ai/ha, Flood, 13 days, 0 to 100 scale (0 no effect, 100 complete control); read-out: Plant response rating, Rice
Procedure, shortened: as §2

sedge, umbrella = test: Test B flooded paddy test; format: in vivo, Cyperus difformis; details: Cyperus difformis, 312 h; 250 g ai/ha, Flood, 13 days, 0 to 100 scale (0 no effect, 100 complete control); read-out: Plant response rating, Sedge, Umbrella
Procedure, shortened: as §2

barnyardgrass [4] = test: Test A postemergence; format: in vivo, Echinochloa crusgalli; details: postemergence, 10 days
Procedure, shortened: as §1

[5] = visual injury after 10 days, 0 is no effect, 100 is complete control

| SMILES | pest or weed control at 125 g/ha (blackgrass; [5]) [%] | pest or weed control at 500 g/ha (blackgrass; [5]) [%] | pest or weed control at 125 g/ha (goosegrass [1]) [%] | pest or weed control at 500 g/ha (goosegrass [1]) [%] | pest or weed control at 125 g/ha (ragweed; [5]) [%] | pest or weed control at 500 g/ha (ragweed; [5]) [%] | plant injury at 500 g/ha (soybean; [5]) [%] | plant injury at 125 g/ha (corn) [%] | Corn plant response rating (crop injury, 0 = no effect, 100 = complete kill) at 500 g/ha (corn) [%] | pest or weed control at 125 g/ha (kochia) [%] | pest or weed control at 500 g/ha (kochia) [%] | pest or weed control at 125 g/ha (pigweed, palmer) [%] | pest or weed control at 500 g/ha (pigweed, palmer) [%] | pest or weed control at 125 g/ha (ryegrass, Italian) [%] | pest or weed control at 500 g/ha (ryegrass, Italian) [%] | pest or weed control at 125 g/ha (galium) [%] | pest or weed control at 500 g/ha (galium) [%] | pest or weed control at 250 g/ha (barnyardgrass [3]) [%] | plant injury at 250 g/ha (rice) [%] | pest or weed control at 250 g/ha (sedge, umbrella) [%] | also measured |
| --- | --- | --- | --- | --- | --- | --- | --- | --- | --- | --- | --- | --- | --- | --- | --- | --- | --- | --- | --- | --- | --- |
| Cc1cccc2c1O[C@@H](C)CN2C(=O)c1cccc(-n2cnn(C)c2=O)c1 [Compound 117, 4-[3-[[(2S)-2,3-Dihydro-2,8-dimethyl-4H-1,4-benzoxazin-4-yl]carbonyl]phenyl]-2,4-dihydro-2-methyl-3H-1,2,4-triazol-3-one] | 30 | 90 | 50 | 100 | 0 | 40 | 70 | 0 | 50 | 30 | 70 | 10 | 30 | 30 | 60 | 0 | 0 | 0 | 0 | 0 | plant injury at 125 g/ha (soybean; [5]): 30%; pest or weed control at 125 g/ha (foxtail, giant): 20%; pest or weed control at 500 g/ha (foxtail, giant): 70%; pest or weed control at 125 g/ha (goosegrass [2]): 30%; pest or weed control at 500 g/ha (goosegrass [2]): 70% |
| Cc1cccc2c1O[C@@H](C)CN2C(=O)c1cccc(-n2cn[nH]c2=O)c1 [Compound 122, 4-[3-[[(2S)-2,3-Dihydro-2,8-dimethyl-4H-1,4-benzoxazin-4-yl]carbonyl]phenyl]-2,4-dihydro-3H-1,2,4-triazol-3-one] | 10 | 50 | 0 | 90 | 0 | 0 | 0 | 10 | 60 | 30 | 50 | 20 | 20 | 0 | 30 | 50 | 50 | 0 | 0 | 0 | plant injury at 125 g/ha (soybean; [5]): 0%; pest or weed control at 125 g/ha (foxtail, giant): 20%; pest or weed control at 500 g/ha (foxtail, giant): 50%; pest or weed control at 125 g/ha (goosegrass [2]): 0%; pest or weed control at 500 g/ha (goosegrass [2]): 60% |
| C[C@H]1CN(C(=O)c2cccc(-c3cnn(C)n3)c2)c2cccc(Cl)c2O1 [Compound 127, [(2S)-8-Chloro-2,3-dihydro-2-methyl-4H-1,4-benzoxazin-4-yl][3-(2-methyl-2H-1,2,3-triazol-4-yl)phenyl]methanone] | 20 | 70 | 60 | 100 | 0 | 0 | 0 | 20 | 50 | 60 | 90 | 60 | 90 | 10 | 50 | 60 | 100 | 0 | 0 | 0 | plant injury at 125 g/ha (soybean; [5]): 0%; pest or weed control at 125 g/ha (foxtail, giant): 50%; pest or weed control at 500 g/ha (foxtail, giant): 90%; pest or weed control at 125 g/ha (goosegrass [2]): 10%; pest or weed control at 500 g/ha (goosegrass [2]): 70% |
| CC(C)c1ncn(-c2cc3c(c(C(=O)N4C[C@H](C)Oc5c(Cl)cccc54)c2)OCC3)n1 [Compound 147] | – | 90 | – | – | – | 0 | 100 | 10 | 90 | 60 | 90 | 80 | 90 | 50 | 80 | 100 | 100 | 0 | 0 | 95 | pest or weed control at 125 g/ha (blackgrass): 20%; pest or weed control at 125 g/ha (ragweed): 0%; plant injury at 125 g/ha (soybean): 0%; Barnyardgrass plant response rating (barnyardgrass [4]; 125 g ai/ha, 0 to 100 scale, 0 no effect, 100 complete control): 10; Plant response rating, Barnyardgrass (barnyardgrass [4]; 500 g ai/ha, visual injury, 0 to 100 scale (0 no effect, 100 complete control)): 70 |
